Patent US20260250318A1, “COMPOSITIONS AND METHODS FOR CROSSING THE BLOOD BRAIN BARRIER” (VOYAGER THERAPEUTICS, INC., priority 2022, published 2026)

System: brain
Assay: Maturation of TTM-001 capsid, NGS enrichment in brain of CD-1 Outbred mice
Type: in vivo
Conditions: NGS fold-enrichment of TTM-001 matured AAV capsid variants in the brain of CD-1 Outbred mice; intravenous 1.0×10^12 VG/dose; 14 days in life; RNA; relative to non-matured TTM-001 control
Text: This Example describes maturation of the TTM-001 (SEQ ID NO: 981 (amino acid) and 983 (DNA), comprising SEQ ID NO: 941) and TTM-002 (SEQ ID NO: 982 (amino acid) and 984 (DNA), comprising SEQ ID NO: 2) capsid variants to further enhance their transduction and biodistribution in the central nervous system and evolve the AAV capsid variants to provide further cross-species compatibility. Two approaches were used to mature the TTM-001 and TTM-002 capsid sequences in order to randomize and mutate within and around the peptide insert comprised within loop IV of the capsid variant. […] In the first maturation approach, sets of three contiguous amino acids were randomized across the mutagenesis region in the TTM-001 and TTM-002 sequences, which spanned from position 450 to position 466, numbered according to SEQ ID NO: 981 and 982. In the second maturation approach, mutagenic primers were used to introduce point mutations at a low frequency, scattered across the mutagenesis region in the TTM-001 and TTM-002 sequences ranging from position 449 to position 466, numbered according to SEQ ID NO: 981 and 982. AAV capsid variants arising from each maturation approach for TTM-001 were pooled together and AAV capsid variants arising from each maturation approach for TTM-002 were also pooled together, for subsequent testing and characterization in mice.
The library of pooled matured AAV capsid variants generated from TTM-001 or library of pooled matured AAV capsid variants generated from the TTM-002 matured AAV capsid variant each were intravenously injected into the tail vein of three female CD-1 Outbred mice (Charles River) at a dose of 1.0×10^12 VG/dose. After 14-days in life, the brains of the mice were isolated and RNA was extracted. Following RNA recovery and RT-PCR amplification, a systematic NGS enrichment analysis was performed to calculate the fold enrichment ratio relative to the corresponding TTM-001 or TTM-002 control, and the peptides comprised within the variants were identified. The data for the TTM-001 matured capsid variants is provided in Table 13 and the data for the TTM-002 matured capsid variants is provided in Table 14.

Row | Sequence | Fold enrichment over TTM-001 [fold]
1 | KTINGRHSPHLKAQNQQT | 2.369
2 | KTINGRISPHGKAQNQQT | 2.492
3 | KTINGRISPHLKAQNQQT | 2.028
4 | KTINGRKSPHSKAQNQQT | 2.985
5 | KTINGRLSPHFKAQNQQT | 2.097
6 | KTINGRLSPHRKAQNQQT | 2.238
7 | KTINGRPSPHIKAQNQQT | 2.155
8 | KTINGRPSPHSKAQNQQT | 2.276
9 | KTINGRPSPHVKAQNQQT | 2.419
10 | KTINGRQSPHAKAQNQQT | 2.026
11 | KTINGRQSPHTKAQNQQT | 2.294
12 | KTINGRQSPHVKAQNQQT | 2.557
13 | KTINGRRSPHLKAQNQQT | 2.391
14 | KTINGRRSPHTKAQNQQT | 2.069
15 | KTINGRSSPHFKAQNQQT | 2.428
16 | KTINGRSSPHGKAQNQQT | 3.035
17 | KTINGRSSPHPKAQNQQT | 2.596
18 | KTINGRSSPHRKAQNQQT | 2.965
19 | KTINGRTSPHAKAQNQQT | 2.060
20 | KTINGRYSPHSKAQNQQT | 2.080
21 | KTINGSASPHVFAQNQQT | 2.186
22 | KTINGSASPHWSAQNQQT | 2.121
23 | KTINGSCSPHLAAQNQQT | 2.134
24 | KTINGSCSPHLRAQNQQT | 2.423
25 | KTINGSCSPHPLAQNQQT | 3.086

Row | Sequence | Fold enrichment over TTM-001 [fold]
26 | KTINGSCSPHRKAQNQQT | 4.801
27 | KTINGSCSPHSGAQNQQT | 2.994
28 | KTINGSCSPHSLAQNQQT | 2.099
29 | KTINGSCSPHVRAQNQQT | 2.406
30 | KTINGSESPHDSAQNQQT | 2.164
31 | KTINGSGSPHAFLQNQQT | 2.475
32 | KTINGSGSPHALFQNQQT | 2.261
33 | KTINGSGSPHCLAQNQQT | 4.847
34 | KTINGSGSPHCLLQNQQT | 4.898
35 | KTINGSGSPHCLSQNQQT | 2.114
36 | KTINGSGSPHCSAQNQQT | 2.339
37 | KTINGSGSPHCSLQNQQT | 4.540
38 | KTINGSGSPHCSSQNQQT | 2.253
39 | KTINGSGSPHCTLQNQQT | 2.497
40 | KTINGSGSPHCVAQNQQT | 2.080
41 | KTINGSGSPHEHNQNQQT | 2.199
42 | KTINGSGSPHELPQNQQT (KTINGSGSPHFLPQNQQT) | 2.123
43 | KTINGSGSPHFHLQNQQT | 2.121
44 | KTINGSGSPHFLLQNQQT | 2.758
45 | KTINGSGSPHFLNQNQQT | 2.359
46 | KTINGSGSPHFLRQNQQT | 4.777
47 | KTINGSGSPHFMRQNQQT | 2.123
48 | KTINGSGSPHGLWQNQQT | 2.181
49 | KTINGSGSPHGWAQNQQT | 2.121
50 | KTINGSGSPHIYLQNQQT | 2.542

Row | Sequence | Fold enrichment over TTM-001 [fold]
51 | KTINGSGSPHIYRQNQQT | 2.782
52 | KTINGSGSPHLCLQNQQT | 3.425
53 | KTINGSGSPHLFRQNQQT | 2.324
54 | KTINGSGSPHLKRQNQQT | 2.564
55 | KTINGSGSPHLLFQNQQT | 2.069
56 | KTINGSGSPHLLWQNQQT | 3.855
57 | KTINGSGSPHLLYQNQQT | 2.983
58 | KTINGSGSPHLNWQNQQT | 3.112
59 | KTINGSGSPHLRFQNQQT | 2.186
60 | KTINGSGSPHLRRQNQQT | 3.493
61 | KTINGSGSPHLSCQNQQT | 2.277
62 | KTINGSGSPHLSWQNQQT | 3.047
63 | KTINGSGSPHLTWQNQQT | 2.637
64 | KTINGSGSPHLVCQNQQT | 2.493
65 | KTINGSGSPHLVFQNQQT | 2.376
66 | KTINGSGSPHLWSQNQQT | 3.857
67 | KTINGSGSPHLWTQNQQT | 3.034
68 | KTINGSGSPHLYGQNQQT | 2.277
69 | KTINGSGSPHLYMQNQQT | 2.615
70 | KTINGSGSPHMYAQNQQT | 2.060
71 | KTINGSGSPHMYLQNQQT | 3.061
72 | KTINGSGSPHPFLQNQQT | 2.916
73 | KTINGSGSPHPLFQNQQT | 2.233
74 | KTINGSGSPHPYAQNQQT | 2.598
75 | KTINGSGSPHRFKQNQQT | 2.223

Row | Sequence | Fold enrichment over TTM-001 [fold]
76 | KTINGSGSPHRFRQNQQT | 3.698
77 | KTINGSGSPHRLRQNQQT | 2.998
78 | KTINGSGSPHRRLQNQQT | 2.030
79 | KTINGSGSPHRRMQNQQT | 2.004
80 | KTINGSGSPHRRRQNQQT | 3.754
81 | KTINGSGSPHRRSQNQQT | 2.497
82 | KTINGSGSPHRSRQNQQT | 2.270
83 | KTINGSGSPHRTRQNQQT | 3.190
84 | KTINGSGSPHRWAQNQQT | 2.350
85 | KTINGSGSPHSALWNQQT | 2.261
86 | KTINGSGSPHSCAQNQQT | 2.030
87 | KTINGSGSPHSCLLNQQT | 3.127
88 | KTINGSGSPHSCLQNQQT | 3.559
89 | KTINGSGSPHSCSQNQQT | 3.428
90 | KTINGSGSPHSEIVNQQT | 4.931
91 | KTINGSGSPHSFARNQQT | 2.367
92 | KTINGSGSPHSFITNQQT | 2.868
93 | KTINGSGSPHSFLLNQQT | 2.341
94 | KTINGSGSPHSFLRNQQT | 3.384
95 | KTINGSGSPHSFLVNQQT | 2.624
96 | KTINGSGSPHSFRLNQQT | 2.158
97 | KTINGSGSPHSFVLNQQT | 3.382
98 | KTINGSGSPHSFVRNQQT | 2.110
99 | KTINGSGSPHSFVVNQQT | 2.335
100 | KTINGSGSPHSGLWNQQT | 2.350

Row | Sequence | Fold enrichment over TTM-001 [fold]
101 | KTINGSGSPHSHMENQQT | 2.259
102 | KTINGSGSPHSHWQNQQT | 2.676
103 | KTINGSGSPHSIFSNQQT | 2.110
104 | KTINGSGSPHSIWQNQQT | 5.883
105 | KTINGSGSPHSKAARTQT | 2.266
106 | KTINGSGSPHSKACASQT | 2.775
107 | KTINGSGSPHSKACPLQT | 2.285
108 | KTINGSGSPHSKACSAQT | 2.754
109 | KTINGSGSPHSKAFARQT | 3.082
110 | KTINGSGSPHSKAFPRQT | 3.220
111 | KTINGSGSPHSKAFRLQT | 4.849
112 | KTINGSGSPHSKAFRPQT | 2.499
113 | KTINGSGSPHSKAFTRQT | 2.518
114 | KTINGSGSPHSKAGCGQT | 5.341
115 | KTINGSGSPHSKAGRGQT | 2.058
116 | KTINGSGSPHSKAHRLQT | 2.603
117 | KTINGSGSPHSKAHRQQT | 2.117
118 | KTINGSGSPHSKAHRSQT | 2.819
119 | KTINGSGSPHSKAKHLQT | 2.870
120 | KTINGSGSPHSKAKLRQT | 3.976
121 | KTINGSGSPHSKAKSRQT | 2.739
122 | KTINGSGSPHSKALCRQT | 2.048
123 | KTINGSGSPHSKALKRQT | 2.836
124 | KTINGSGSPHSKALRFQT | 3.894
125 | KTINGSGSPHSKALRRQT | 4.330
